Tests used:
[1] = system: Src-YF expressing ZM77 cell lines; test: Suppression of tet-induced phenotype changes, evaluated by eye/microscope, normal cell culture plates; format: cell-based, human; settings: adherent, serum-containing medium
Protocol: Phenotype changes -tet → +tet were evaluated in 24-well plates (Nunc; cat.no. 143982) under the following several different growth conditions to identify the strongest possible response (Δpt(-tet→+tet)max) 1. full (10% serum containing) growth medium a) without any growth factor supplement (-), b) with epidermal growth factor (EGF; 100ng/ml) (cat.no. 115, Research Diagnostics Inc. (RDI), Flanders, NJ, USA) or c) platelet derived growth factor type BB (PDGF-BB; 30ng/ml) (cat.no. 114b, RDI) or d) hepatocyte growth factor (HGF; 20ng/ml) (RDI, cat.no.300-010), or 2. serum-free medium a) - or b) +EGF or c) +PDGF or d) +HGF. In all cases, cells were first seeded into standard 24-well or 96-well plates (Nunc) in full growth medium. The cell number seeded per well was also varied to identify the most suitable cell densities producing Δpt(-tet→+tet)max. […]
To that end, the test compounds PP1-Chr., PP2 (cat.no. 529573, Calbiochem) and SU6656 (cat.no. 572635, Calbiochem) (see Fig.9p for chemical structures) were individually added to the cells together with tet, and the development of the phenotype changes in the presence of these compounds was monitored subsequently in direct comparison with cells that received no compound or only vehicle (0.2% DMSO) together with tet induction. […]

[2] = system: Src-TQ/YF expressing cell line ZM170.21; test: CTB and ATP cell viability/metabolic activity assays, suppression of tet-induced reduction; format: cell-based, human; settings: ZM170.21 (Src-TQ/YF), 5µM PP2 + 10µM PP1-Chr., 40µM D5, 1µM 17-AAG, 1µM radicicol
Description: To proof the concept of the assay platform according to the invention in a quantitative manner with a highly parallel readout, the following cell viability / metabolic activity assays from Promega according to the manufacturer's protocols: "CellTiter 96 AQueous One Solution Cell Proliferation Assay (MTS)", CellTiter-BlueTM Cell Viability Assay (CTB), and the ATP-status assay "CellTiter-Glo Luminescent Cell Viability Assay" (ATP) were used to obtain quantitative values reflecting (aspects of) the phenotype changes. The cells were seeded into white-walled/ clear bottom 96-well plates ["MICROTEST" by Falcon, cat.no. 353947] for MTS and ATP assays and in black-walled/ clear bottom 96-well plates ["MICROTEST" by Falcon, cat.no. 353948] for the CTB assay at the appropriate densities. Tet and/or compound addition (where applicable) was started the next day. Measurements were taken 1,2 and 3 days later using the Wallac Victor^2TM multilabel plate reader (Perkin Elmer). Absorbance was measured at 490nm (MTS). Luminescence mode was used for the ATP assay. For CTB fluorescence excitation wavelength was 550nm (filter: 550(20)nm), emission wavelength was 590 nm (filter: 590(20)nm). Indicated are the means of sixplicate determinations (from 6 independent wells) in the absence of tet (mean(-tet)) and in the presence of tet (mean(+tet)), followed by the respective corresponding standard deviations SD(-tet) and SD(+tet). The cell viability/ metabolic activity upon tet-induction in relation to the cell viability/ metabolic activity without tet ("+/tet(means") is calculated from the quotient of the means of the measured cell viability/ metabolic activity signals from i) cells incubated without tet and ii) cells incubated with tet. […] Furthermore indicated are the corresponding Z' values. In the present context: Z'=1-(3(SD(+tet)+SD(-tet))/ |mean(+tet)-mean(-tet)|. […] SD=0) (Zhang et al., 1999). Z'≥0 is required for an assay useful for a screening approach; a Z'≥0.5 is considered excellent for an assay with regard to high throughput screening. […] Three more parameters reflecting the effects of compounds on cell viability/metabolic activity in these assays are indicated in Tab.3 and Tab.4: Toxicity reflects the nonspecific (i.e. irrespective of tet-induced Src/ Src mutant expression) effects of a compound on the viability/ metabolic activity of the cells. It is calculated as toxicity=1-mean(-tet, compound)/mean(-tet,(DMSO)). […] The suppression value quantifies the potency of a compound with respect to suppression of the tet-induced change in cell viability / metabolic activity. Usually, tet-induction reduces cell viability / metabolic activity due to Src activity and addition of a Src inhibitory compound mitigates this reduction. A suppression of 100% means that the compound totally suppresses the tet-induced decrease in cell viability / metabolic activity (as in the absence of tet). The following formula is employed: Suppres-sion=([…]). Finally, the corresponding Z' value is calculated as follows: Z'(suppression)=1- 3([…]). The factor Qtox corrects the means and SD determined in the absence of a compound for the (nonspecific) toxicity effect of the respective compound, which would otherwise overlay and obscure the specific suppression, if toxicity is not neglectable. […] On each day 4 measurements are taken (1, 2, 3 and 4 h after the addition of the CTB assay reagents). […]

[3] = system: Src family kinases when they carry the respective TQ mutations; settings: cited from earlier work

## CC(C)(C)n1nc(-c2ccc(Cl)cc2)c2c(N)ncnc21 [PP2]
[1]
  suppression of tet-induced phenotype changes: partially suppressed
[2]
  suppression of the +/-tet(means)-values: did not significantly suppress
[3]
  inhibition of Src family kinases carrying the TQ mutations: do not inhibit
